Data on four compounds can be found in patent US20120088791A1, “AMIDOBIPIPERIDINECARBOXYLATE M1 ALLOSTERIC AGONISTS, ANALOGS AND DERIVATIVES THEREOF, AND METHODS OF MAKING AND USING SAME” (VANDERBILT UNIVERSITY, priority 2009, published 2012).

Test [1] deals with T1, rM1 (Rattus norvegicus, UniProt P08482).
T1 construct: host or cells: CHO-K1
T1 sequence (P08482 1-460): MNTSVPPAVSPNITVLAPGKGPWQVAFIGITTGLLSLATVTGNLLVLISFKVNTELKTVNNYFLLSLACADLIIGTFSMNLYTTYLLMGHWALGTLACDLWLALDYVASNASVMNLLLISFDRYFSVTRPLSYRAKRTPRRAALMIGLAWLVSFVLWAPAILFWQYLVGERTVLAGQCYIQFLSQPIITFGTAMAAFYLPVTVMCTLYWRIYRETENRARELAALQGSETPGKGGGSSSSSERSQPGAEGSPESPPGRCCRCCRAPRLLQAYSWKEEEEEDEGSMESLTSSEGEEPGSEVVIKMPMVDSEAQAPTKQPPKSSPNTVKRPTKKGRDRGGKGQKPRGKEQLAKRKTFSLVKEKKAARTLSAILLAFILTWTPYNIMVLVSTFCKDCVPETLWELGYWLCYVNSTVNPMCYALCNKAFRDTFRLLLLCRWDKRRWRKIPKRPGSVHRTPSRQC
The test is described as follows: Calcium mobilization assay, CHO-K1 cells stably expressing rM1. The note with it: Table 1, R-enantiomers; for Emax: RM1, read-out: Efficacy (% Max ACh); for EC50: agonist-evoked calcium flux, read-out: Potency (EC50). The test is classed as cell-based. An excerpt:
(§1) Cell culture and transfections. Chinese hamster ovary (CHO-K1) cells stably expressing rat (r)M1 were purchased from the American Type Culture Collection and cultured according to their indicated protocol. CHO cells stably expressing human (h)M2, hM3, and hM5 were used and described previously (Levey et al., 1991); rM4 cDNA, provided by T. I. Bonner (National Institutes of Health, Bethesda, Md.), was used to stably transfect CHO-K1 cells purchased from the American Type Culture Collection using Lipofectamine2000. To make stable hM2 and rM4 cell lines for use in calcium mobilization assays, these cells also were stably transfected with a chimeric G-protein (Gqi5) using Lipofectamine 2000. M1, hM3, and hM5 cells were grown in Ham's F-12 medium containing 10% heat-inactivated fetal bovine serum (FBS), 20 mM HEPES, and 50 μg/ml G418 sulfate. hM2-Gqi5 cells were grown in the same medium also containing 500 μg/ml Hygromycin B. Stable rM4-Gqi5 cells were grown in DMEM containing 10% heat-inactivated FBS, 20 mM HEPES, 400 μg/ml G418 sulfate, and 500 μg/ml Hygromycin B. The rat M1 Y381A orthosteric mutant receptor cDNA was generated using the Quik-Change site-directed mutagenesis kit (Stratagene) and verified by sequencing. CHO-K1 cells were stably transfected with this cDNA using Lipofectamine2000 and screened for expression based on calcium mobilization in response to the allosteric M1 agonist N-desmethylclozapine.
Calcium mobilization assays. For measurement of agonist-evoked increases in intracellular calcium, CHO-K1 cells stably expressing muscarinic receptors were plated in 100 μl of growth medium at 5×10^4 (rM1, hM3, and hM5) or 6×10^4 cells per well (rM1 Y381A, hM2, and rM4) in Costar 96-well black-walled, tissue culture (TC)-treated, clear-bottom plates (Fisher). Cells were incubated overnight at 37° C. and 5% CO2. The next day, medium was removed from the cells, and they were incubated with 50 μl of 2 μM Fluo-4 AM diluted in assay buffer [HBSS (Invitrogen) supplemented with 20 mM HEPES and 2.5 mM probenecid, pH 7.4] for 1 h at 37° C. Dye was removed and replaced with 45 μl of assay buffer. Agonists were diluted into assay buffer at a 2× concentration and applied to cells using the automated system at 19 s into the 130 s protocol. Calcium flux was measured over time as an increase in fluorescence (fold over basal) using the Flexstation plate reader (Molecular Devices).

Test [2] has as its target T2, hM2 (Homo sapiens, UniProt P08172).
T2 construct: expressed in transfected cells; host or cells: CHO cells, also stably transfected with chimeric G-protein Gqi5
T2 sequence (P08172 1-466): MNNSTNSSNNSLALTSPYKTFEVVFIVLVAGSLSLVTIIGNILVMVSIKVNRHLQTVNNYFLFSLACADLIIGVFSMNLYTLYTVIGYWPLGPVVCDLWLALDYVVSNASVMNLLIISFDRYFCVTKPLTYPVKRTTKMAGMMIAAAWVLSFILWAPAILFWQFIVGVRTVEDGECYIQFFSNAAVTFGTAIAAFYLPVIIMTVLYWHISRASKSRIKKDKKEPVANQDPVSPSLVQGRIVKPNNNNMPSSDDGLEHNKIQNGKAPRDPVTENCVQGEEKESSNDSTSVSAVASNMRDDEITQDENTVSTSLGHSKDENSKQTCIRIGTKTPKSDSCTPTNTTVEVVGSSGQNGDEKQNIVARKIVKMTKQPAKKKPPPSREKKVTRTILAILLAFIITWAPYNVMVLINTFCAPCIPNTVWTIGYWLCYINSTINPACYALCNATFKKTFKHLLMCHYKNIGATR
Description: Calcium mobilization assay, CHO cells stably expressing hM2-Gqi5. Type of test: cell-based. Particulars: selectivity for M1; read-out: potency (EC50) versus M2.
Source text: as §1, with “CHO-K1 cells were stably transfected with this cDNA using Lipofectamine2000 and screened for expression based on calcium mobilization in response to the allosteric M1 agonist N-desmethylclozapine.” left out
(§2) Calcium mobilization assays. […] Calcium flux was measured over time as an increase in fluorescence (fold over basal) using the Flexstation plate reader (Molecular Devices).

Test [3] has as its target T3, hM3 (Homo sapiens, UniProt P20309).
T3 construct: expressed in transfected cells; host or cells: CHO cells
The test is described as follows: Calcium mobilization assay, CHO cells stably expressing hM3. The test is classed as cell-based. Particulars: selectivity for M1; read-out: potency (EC50) versus M3.
Source text: as §1, with “CHO-K1 cells were stably transfected with this cDNA using Lipofectamine2000 and screened for expression based on calcium mobilization in response to the allosteric M1 agonist N-desmethylclozapine.” left out
as §2

Test [4] concerns the target T4, hM5 (Homo sapiens, UniProt P08912).
T4 construct: expressed in transfected cells; host or cells: CHO cells
T4 sequence (P08912 1-532): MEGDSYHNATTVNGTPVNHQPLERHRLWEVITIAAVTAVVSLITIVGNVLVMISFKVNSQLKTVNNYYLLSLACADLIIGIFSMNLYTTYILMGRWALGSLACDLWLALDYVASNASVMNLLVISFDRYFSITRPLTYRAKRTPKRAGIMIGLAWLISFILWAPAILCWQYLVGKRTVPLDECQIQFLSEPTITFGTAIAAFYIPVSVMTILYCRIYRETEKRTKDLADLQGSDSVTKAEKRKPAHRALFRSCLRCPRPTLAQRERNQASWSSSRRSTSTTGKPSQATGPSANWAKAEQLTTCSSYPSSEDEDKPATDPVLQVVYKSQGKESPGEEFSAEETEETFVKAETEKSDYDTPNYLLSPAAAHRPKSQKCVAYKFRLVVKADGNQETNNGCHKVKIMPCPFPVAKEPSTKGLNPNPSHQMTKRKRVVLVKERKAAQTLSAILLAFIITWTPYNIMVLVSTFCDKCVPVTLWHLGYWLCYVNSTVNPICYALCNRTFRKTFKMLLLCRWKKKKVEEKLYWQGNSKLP
The test is described as follows: Calcium mobilization assay, CHO cells stably expressing hM5. Type of test: cell-based. The note with it: selectivity for M1; read-out: potency (EC50) versus M5.
Source text: as §1, with “CHO-K1 cells were stably transfected with this cDNA using Lipofectamine2000 and screened for expression based on calcium mobilization in response to the allosteric M1 agonist N-desmethylclozapine.” left out
as §2

Test [5] has as its target T5, rM4 (Rattus norvegicus, UniProt P08485).
T5 construct: expressed in transfected cells; host or cells: CHO-K1 cells, also stably transfected with chimeric G-protein Gqi5
T5 sequence (P08485 1-478): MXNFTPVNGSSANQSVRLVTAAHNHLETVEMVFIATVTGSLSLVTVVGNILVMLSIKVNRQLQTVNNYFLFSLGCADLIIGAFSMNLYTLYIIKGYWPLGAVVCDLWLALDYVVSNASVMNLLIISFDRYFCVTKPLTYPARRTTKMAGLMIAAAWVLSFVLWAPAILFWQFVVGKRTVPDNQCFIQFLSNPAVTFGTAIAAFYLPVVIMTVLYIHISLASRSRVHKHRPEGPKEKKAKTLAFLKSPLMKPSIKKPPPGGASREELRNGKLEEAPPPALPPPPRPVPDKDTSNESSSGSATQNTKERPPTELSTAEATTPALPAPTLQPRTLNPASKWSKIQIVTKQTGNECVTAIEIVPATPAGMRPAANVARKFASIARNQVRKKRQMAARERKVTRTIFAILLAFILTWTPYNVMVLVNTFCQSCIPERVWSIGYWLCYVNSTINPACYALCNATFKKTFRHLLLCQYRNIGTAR
Description: Calcium mobilization assay, CHO-K1 cells stably expressing rM4-Gqi5. Type of test: cell-based. Particulars: selectivity for M1; read-out: potency (EC50) versus M4.
Source text: as §1, with “CHO-K1 cells were stably transfected with this cDNA using Lipofectamine2000 and screened for expression based on calcium mobilization in response to the allosteric M1 agonist N-desmethylclozapine.” left out
as §2

Test [6] deals with Aβ 1-40 and 1-42 production. The note with it: in vitro; cited from earlier work.
For test [7] the following is noted: multiple preclinical models; cited from earlier work.
The conditions of test [8]: preclinical and clinical studies; cited from earlier work.

T3 sequence (P20309 whole entry): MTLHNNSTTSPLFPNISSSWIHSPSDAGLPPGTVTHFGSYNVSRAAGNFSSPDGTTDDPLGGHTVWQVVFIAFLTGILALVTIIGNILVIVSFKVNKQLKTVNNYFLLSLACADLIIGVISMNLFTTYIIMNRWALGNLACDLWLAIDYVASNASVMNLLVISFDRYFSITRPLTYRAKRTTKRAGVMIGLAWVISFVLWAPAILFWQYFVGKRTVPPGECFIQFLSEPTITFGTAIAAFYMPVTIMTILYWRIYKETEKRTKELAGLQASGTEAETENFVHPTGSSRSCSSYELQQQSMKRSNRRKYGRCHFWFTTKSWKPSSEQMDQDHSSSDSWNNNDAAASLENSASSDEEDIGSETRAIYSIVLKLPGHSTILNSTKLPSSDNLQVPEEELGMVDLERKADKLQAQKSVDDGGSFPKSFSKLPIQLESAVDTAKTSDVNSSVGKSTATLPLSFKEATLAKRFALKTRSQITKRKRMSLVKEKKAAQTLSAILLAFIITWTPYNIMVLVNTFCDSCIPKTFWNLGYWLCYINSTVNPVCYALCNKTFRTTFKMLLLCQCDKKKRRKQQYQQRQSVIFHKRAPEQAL

Turning to `CCOC(=O)N1CCC(N2CCC[C@@H](NC(=O)c3ccccc3C)C2)CC1` [(R)-ethyl 3-(2-methylbenzamido)-1,4′-bipiperidine-1′-carboxylate], the Emax in test [1] was found to be 96%. Moreover, the EC50 in test [1] was 0.088 µM; in test [2] it was above 50 µM; in test [3] it was above 50 µM; in test [4], above 50 µM; in test [5] it was above 50 µM.

Consider `CCOC(=O)N1CCC(N2CCC[C@@H](NC(=O)c3ccccc3)C2)CC1` [(R)-ethyl 3-benzamido-1,4′-bipiperidine-1′-carboxylate], for which the Emax in test [1] was 91%. Besides, the EC50 in test [1] is 0.127 µM; in test [2] it was above 50 µM; in test [3], above 50 µM; in test [4] it was above 50 µM; in test [5] it was above 50 µM.

Take `Cc1ccccc1CN1CCC(N2CCC(n3c(=O)[nH]c4ccccc43)CC2)CC1` [TBPB]: in test [6], the “effect on Aβ 1-40 and 1-42 production” value was “decrease Aβ 1-40 and 1-42 production in vitro”. The “efficacy in preclinical models of schizophrenia” value in test [7] is “demonstrated efficacy”.

Take `CCCCCCOc1nsnc1C1=CCCN(C)C1` [Xanomeline]: the “efficacy with regard to positive, negative and cognitive symptoms” value in test [8] is “proved efficacious”.
